Laboratory results reported in publication PMC11947619, “Molecular mechanism of Mad2 conformational conversion promoted by the Mad2‐interaction motif of Cdc20” (Protein Science : A Publication of the Protein Society, 2025).

Tests used:
O‐Mad2^LL = target: T1, O‐Mad2^LL (Homo sapiens, UniProt Q13257, A115G/DEL109-114/P116S/R117G); test: Time-resolved NMR: conversion / binding with O-Mad2^LL (loop-less); assay type: biochemical; conditions: two-fold molar excess peptide, 25°C
T1 construct: His6-DoubleStrep-TEV (N); made in house
T1 sequence (Q13257 with tags, fused parts or gaps DEL109-114/A115G/P116S/R117G): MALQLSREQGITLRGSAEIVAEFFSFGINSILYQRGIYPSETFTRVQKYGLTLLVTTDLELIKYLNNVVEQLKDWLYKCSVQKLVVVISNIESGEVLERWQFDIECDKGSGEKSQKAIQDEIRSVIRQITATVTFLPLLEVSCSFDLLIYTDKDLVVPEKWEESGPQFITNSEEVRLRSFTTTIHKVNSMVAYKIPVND
Procedure: FIGURE 5 The dynamic β5‐αC loop and C‐terminal residues in O‐Mad2 modulate Mad2 conversion. The O‐ to C‐Mad2 conversion is slowed when the highly dynamic β5‐αC loop is truncated (O‐Mad2^LL) and eliminated in the absence of the C‐terminal ten residues (O‐Mad2^∆C10). Using the side chain resonances of Trp75 and Trp167 as reporters, Mad2 conversion was traced in a 24 h time course at 25°C. Cdc20^MIM‐111‐138 peptides were added at two‐fold molar excess to Mad2 (100 μM). Severe line broadening was observed during the conversion of O‐Mad2^LL, most likely due to dimerization of O‐Mad2^LL with the newly converted C‐Mad2^LL. NMR data for O‐Mad2^R133A with Cdc20^MIM‐111‐138 shown for comparison are from Fischer et al. ([2022]).
The cloning of human wild‐type Mad2 and the mutant Mad2^R133A by the USER® method (NEB) into the pRSFDuet‐1 vector (71341‐3, Sigma‐Aldrich) with a His6‐DoubleStrep‐TEV tag at its N‐terminus was described previously (Fischer et al., [2022]). For this study, Mad2 mutants were generated as follows. The Mad2^LL expression construct was generated from the wild‐type Mad2 expression vector (Fischer et al., [2022]) by replacing residues 109–117 (TAKDDSAPR) with GSG. Mad2^ΔC10 and Mad2^Δβ7/β8 were modified from wild‐type Mad2 expression construct by deleting residues 196–205 and 166–205, respectively. Mad2^LL/R133A was modified by substituting Ala for Arg133 from the Mad2^LL expression construct. Mad2^LL/ΔC10 was modified from Mad2^LL by deleting residues 196–205. Mad2^L13A/R133A was generated from the Mad2^R133A mutant. Site‐directed mutagenesis of Mad2 was completed using the QuikChangeTM Lightning Site‐Directed Mutagenesis Kit (Agilent) developed by Stratagene Inc. (La Jolla, CA).
All peptides were synthesized by Cambridge Research Biochemicals, UK. Peptides were dialyzed into 20 mM HEPES, pH 7.0, 100 mM NaCl, and 1 mM TCEP for NMR experiments. […]
Mad2LL (grey), Mad2∆C10 (green) and Mad2LL/∆C10 (purple). […] 15N{1H}‐ heteronuclear NOE were measured at 298 K. Regions that are highly dynamic are highlighted in yellow. e. […]

O‐Mad2^R133A = target: T2, O‐Mad2^R133A (Homo sapiens, UniProt Q13257, R133A); conditions: 100 μM O-Mad2^R133A, two-fold molar excess peptide, 25°C, 20 mM HEPES pH 7.0, 100 mM NaCl, 1 mM TCEP, 5% D2O; Trp75/Trp167 indole NH reporters; 12 min per spectrum; ref Fischer et al., [2022]; cited from earlier work
T2 construct: unable to collect equivalent data for full‐length O‐Mad2^R133A; His6-DoubleStrep-TEV (N); made in house
T2 sequence (Q13257 whole entry R133A): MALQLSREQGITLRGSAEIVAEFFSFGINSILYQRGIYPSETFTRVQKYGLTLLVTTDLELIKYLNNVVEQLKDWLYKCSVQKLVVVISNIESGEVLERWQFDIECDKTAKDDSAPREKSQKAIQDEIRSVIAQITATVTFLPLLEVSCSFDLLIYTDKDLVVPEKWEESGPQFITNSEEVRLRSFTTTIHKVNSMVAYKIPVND
Procedure: In contrast, conversion took ~24 h in the absence of Cdc20^MIM‐111‐138 peptide (Fischer et al., [2022]) (Figures 2c and ...

binding to Mad2^LL, early spectra (O‐Mad2^LL; HSQC, spectra collected within 15 min): no binding | slowing of conversion relative to O-Mad2^R133A with Cdc20^MIM-111-138 (O‐Mad2^LL; O-Mad2^LL 100 μM): 8 times | time for conversion of O-Mad2^LL to C-Mad2^LL:Cdc20^MIM (O‐Mad2^LL; O-Mad2^LL 100 μM, Trp75/Trp167 reporters): ~ 250 min
Sequence: EHQKAWALNLNGFDVEEAKILRLSGKPQ [Cdc20^MIM‐111‐138, Cdc20^MIM peptide spanning Cdc20 residues 111–138]
time to complete Mad2 conversion (O‐Mad2^R133A): less than 30 min
